This note sets out measurements from patent publication US8765746B2 (Millennium Pharmaceuticals, Inc., priority 2010, dated 2014).

Each structure is given as a SMILES string.

Holding throughout (type): biochemical
One assay has as its target T1, PI3Kalpha (Homo sapiens, UniProt P42336).
T1 construct: His (N); host or cells: SF9 insect cells (baculovirus)
Briefly: Human PI3Kα enzyme assay (HTRF). The conditions noted are these: for inhibition at 1.11 µM: read-out: PI3Kalpha % inh; for PI3Kalpha % inh: at 1.11 μM. From the text: (§1) The catalytic subunits of PI3Ks are cloned into either pDEST8(p110 alpha) or pDEST10(p110beta, p110delta, and p110gamma) as N-terminal His tagged fusion proteins using the Gateway system (Invitrogen, catalog#11804-010 for pDEST8 and 11806-015 for pDEST10). The sequences are verified before recombinant protein expression using the Baculovirus Expression System with Gateway® Technology. The accession numbers for the subunits are as follows:
(§2) The regulatory subunits of PI3Ks are cloned into pDEST8 as un-tagged protein using the Gateway system (Catalog#11804-010). The sequences are verified before recombinant protein expression using the Baculovirus Expression System with Gateway® Technology. The accession numbers for the subunits are as follows:
(§3) For expression of the p110 complexes, the p85 (MOI of 4) is co-infected with p110 alpha, beta, and delta respectively (1MOI) in SF9 cells and harvested at 60 hours post co-infection. P110 gamma was infected at 1 MOI and harvested at 60 hours post infection.
(§4) For purification, PI3Ks are purified by Ni-NTA Agarose (Qiagen #30250) followed by Mono Q 10/100 GL (Ge Healthcare #17-5167-01). VPS34 is purified by Glutathione Sepharose 4 Fast Flow (GE Healthcare #17-5132-03) followed by HiTrap Q (GE Healthcare #17-1153-01).
1) Human PI3Kα enzyme assay method
(§5) 0.5 uL compounds in DMSO are added to wells of a 384 well microtitre plate (Corning 3575). At room temperature: 10 ul PI3K reaction buffer (50 mM Hepes, 5 mM DTT, 150 mM NaCl, 10 mM beta-glycerophosphate, 10 mM MgCl2, 0.25 mM sodium cholate and 0.001% CHAPS, pH 7.00) containing ATP (25 uM, Promega) is added followed immediately by 10 ul PI3K reaction buffer containing di-C8 PI(4,5)P2 (3.5 uM, CellSignals) and PI3Kalpha (0.4875 nM, Millennium Protein Sciences Group) and the mixture is incubated with shaking at room temperature for 30 minutes. Then 5 ul PI3K stop mix (50 mM Hepes, 5 mM DTT, 150 mM NaCl, 0.01% Tween-20, 15 mM EDTA and 25 nM biotin-PI(3,4,5)P3 (Echelon) is added to quench the reaction followed immediately by addition of 5 ul HTRF detection mix (50 mM Hepes, 5 mM DTT, 150 mM NaCl, 0.01% Tween-20, 40 mM KF, 10 nM GST:GRP-1 PH domain (Millennium Protein Sciences Group), 15 nM Streptavidin-XL (CisBio) and 0.375 nM anti-GST Eu++ antibody (CisBio) at pH 7.00). The plates are then incubated for 1 hour at room temperature with shaking and then read on a BMG PheraStar Plus reader.

For another assay, the target named is T2, PI3Kbeta (Homo sapiens, UniProt P42338).
T2 construct: His (N); host or cells: SF9 insect cells (baculovirus)
T2 sequence (P42338 whole entry): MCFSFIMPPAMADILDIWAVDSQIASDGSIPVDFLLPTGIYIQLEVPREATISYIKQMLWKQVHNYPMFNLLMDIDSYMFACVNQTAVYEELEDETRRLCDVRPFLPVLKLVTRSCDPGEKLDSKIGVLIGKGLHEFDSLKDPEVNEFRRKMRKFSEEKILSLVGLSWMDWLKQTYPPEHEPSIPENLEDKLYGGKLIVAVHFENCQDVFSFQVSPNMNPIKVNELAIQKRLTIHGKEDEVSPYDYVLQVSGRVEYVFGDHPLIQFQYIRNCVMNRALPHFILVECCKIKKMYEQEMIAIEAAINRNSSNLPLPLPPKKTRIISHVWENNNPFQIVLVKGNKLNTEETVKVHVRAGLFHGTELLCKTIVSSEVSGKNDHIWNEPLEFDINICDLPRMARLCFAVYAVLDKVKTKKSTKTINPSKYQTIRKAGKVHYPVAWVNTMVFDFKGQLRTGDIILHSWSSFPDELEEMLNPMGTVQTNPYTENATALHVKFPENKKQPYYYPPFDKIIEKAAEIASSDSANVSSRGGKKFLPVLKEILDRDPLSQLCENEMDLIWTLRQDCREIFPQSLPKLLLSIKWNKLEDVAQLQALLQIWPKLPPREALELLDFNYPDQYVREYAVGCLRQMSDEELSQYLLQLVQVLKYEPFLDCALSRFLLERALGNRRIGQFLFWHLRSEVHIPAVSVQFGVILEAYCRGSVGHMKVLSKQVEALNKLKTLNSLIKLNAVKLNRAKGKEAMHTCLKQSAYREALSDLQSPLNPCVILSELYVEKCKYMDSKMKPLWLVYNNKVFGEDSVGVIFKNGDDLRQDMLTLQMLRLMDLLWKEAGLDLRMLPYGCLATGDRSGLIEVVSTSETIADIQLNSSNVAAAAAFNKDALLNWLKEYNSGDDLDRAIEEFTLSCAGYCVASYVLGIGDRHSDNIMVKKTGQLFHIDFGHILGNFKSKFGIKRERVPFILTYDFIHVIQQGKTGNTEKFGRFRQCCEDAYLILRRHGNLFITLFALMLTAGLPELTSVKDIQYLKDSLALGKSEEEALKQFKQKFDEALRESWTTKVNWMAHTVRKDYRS
T2 sequence (P27986 whole entry partner): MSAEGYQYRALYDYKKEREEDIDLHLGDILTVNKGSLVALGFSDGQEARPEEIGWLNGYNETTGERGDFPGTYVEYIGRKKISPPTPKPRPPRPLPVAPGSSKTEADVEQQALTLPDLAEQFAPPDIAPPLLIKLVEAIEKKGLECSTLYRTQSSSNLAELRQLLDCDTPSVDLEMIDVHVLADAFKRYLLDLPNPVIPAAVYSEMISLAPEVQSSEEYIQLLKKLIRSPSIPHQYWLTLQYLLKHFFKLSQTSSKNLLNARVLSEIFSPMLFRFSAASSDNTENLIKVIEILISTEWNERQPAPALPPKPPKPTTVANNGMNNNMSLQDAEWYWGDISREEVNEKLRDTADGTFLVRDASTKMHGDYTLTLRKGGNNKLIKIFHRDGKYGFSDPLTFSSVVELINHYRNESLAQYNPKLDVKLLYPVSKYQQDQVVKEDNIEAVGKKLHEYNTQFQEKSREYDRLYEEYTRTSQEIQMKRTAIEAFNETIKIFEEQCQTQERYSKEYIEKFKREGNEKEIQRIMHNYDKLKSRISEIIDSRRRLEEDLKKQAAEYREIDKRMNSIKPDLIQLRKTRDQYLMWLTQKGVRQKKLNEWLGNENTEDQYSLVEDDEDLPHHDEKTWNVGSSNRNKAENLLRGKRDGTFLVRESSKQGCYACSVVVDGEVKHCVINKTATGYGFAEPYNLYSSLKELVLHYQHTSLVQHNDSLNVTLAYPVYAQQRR
Briefly: Human PI3K beta enzyme assay (HTRF, as for PI3K alpha). The conditions noted are these: for inhibition at 1.11 µM: read-out: PI3Kbeta % inh; for inhibition at 1.11 µM / PI3Kbeta % inh: at 1.11 μM.
Source text: as §1, §2, §3, §4, §5
(§6) 2) Human PI3K beta, delta and gamma isoforms are tested using the procedure described for PI3K alpha above but with the following changes: PI3K beta (5.25 nM), PI3K delta (0.75 nM) and PI3K gamma (5 nM). All isoforms supplied by Millennium Protein Science Group.

The next assay addresses T3, PI3Kgamma (Homo sapiens, UniProt P48736).
T3 construct: His (N); host or cells: SF9 insect cells (baculovirus)
Briefly: Human PI3K gamma enzyme assay (HTRF, as for PI3K alpha). Particulars: read-out: PI3Kgamma % inh.
Source text: as §1, §2, §3, §4, §5, §6

In a further assay the target is T4, PI3Kdelta (Homo sapiens, UniProt O00329).
T4 construct: His (N); host or cells: SF9 insect cells (baculovirus)
T4 sequence (O00329 whole entry): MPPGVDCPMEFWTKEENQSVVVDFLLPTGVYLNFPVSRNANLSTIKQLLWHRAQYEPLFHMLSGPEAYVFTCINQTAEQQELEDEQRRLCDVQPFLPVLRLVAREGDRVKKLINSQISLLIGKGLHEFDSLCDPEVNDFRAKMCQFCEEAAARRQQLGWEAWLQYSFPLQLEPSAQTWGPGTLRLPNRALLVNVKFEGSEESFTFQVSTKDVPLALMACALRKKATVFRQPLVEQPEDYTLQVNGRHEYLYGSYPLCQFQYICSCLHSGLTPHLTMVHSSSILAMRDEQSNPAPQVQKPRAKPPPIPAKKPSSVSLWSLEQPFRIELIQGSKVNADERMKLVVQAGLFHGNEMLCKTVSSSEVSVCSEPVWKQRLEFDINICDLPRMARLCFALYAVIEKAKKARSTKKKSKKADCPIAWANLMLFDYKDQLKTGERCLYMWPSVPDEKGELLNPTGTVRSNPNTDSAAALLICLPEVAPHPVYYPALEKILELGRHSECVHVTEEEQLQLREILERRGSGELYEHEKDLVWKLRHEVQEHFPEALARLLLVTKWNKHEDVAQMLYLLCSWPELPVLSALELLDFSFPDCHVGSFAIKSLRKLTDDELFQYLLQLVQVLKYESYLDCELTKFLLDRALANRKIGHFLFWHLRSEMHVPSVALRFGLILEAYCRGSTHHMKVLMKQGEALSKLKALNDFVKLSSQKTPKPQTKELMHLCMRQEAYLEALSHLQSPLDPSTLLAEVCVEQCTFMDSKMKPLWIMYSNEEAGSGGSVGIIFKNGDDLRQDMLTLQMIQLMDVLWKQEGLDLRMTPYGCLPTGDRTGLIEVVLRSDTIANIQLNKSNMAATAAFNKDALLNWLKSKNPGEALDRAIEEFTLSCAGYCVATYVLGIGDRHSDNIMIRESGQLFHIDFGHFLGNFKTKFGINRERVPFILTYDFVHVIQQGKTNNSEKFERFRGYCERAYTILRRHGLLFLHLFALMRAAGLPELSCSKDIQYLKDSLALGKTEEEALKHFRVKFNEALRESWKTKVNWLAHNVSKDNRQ
T4 sequence (P27986 whole entry partner): as the sequence (P27986 whole entry partner) above
Briefly: Human PI3K delta enzyme assay (HTRF, as for PI3K alpha). The conditions noted are these: read-out: PI3Kdelta % inh.
Source text: as §1, §2, §3, §4, §5, §6

T3 sequence (P48736 whole entry): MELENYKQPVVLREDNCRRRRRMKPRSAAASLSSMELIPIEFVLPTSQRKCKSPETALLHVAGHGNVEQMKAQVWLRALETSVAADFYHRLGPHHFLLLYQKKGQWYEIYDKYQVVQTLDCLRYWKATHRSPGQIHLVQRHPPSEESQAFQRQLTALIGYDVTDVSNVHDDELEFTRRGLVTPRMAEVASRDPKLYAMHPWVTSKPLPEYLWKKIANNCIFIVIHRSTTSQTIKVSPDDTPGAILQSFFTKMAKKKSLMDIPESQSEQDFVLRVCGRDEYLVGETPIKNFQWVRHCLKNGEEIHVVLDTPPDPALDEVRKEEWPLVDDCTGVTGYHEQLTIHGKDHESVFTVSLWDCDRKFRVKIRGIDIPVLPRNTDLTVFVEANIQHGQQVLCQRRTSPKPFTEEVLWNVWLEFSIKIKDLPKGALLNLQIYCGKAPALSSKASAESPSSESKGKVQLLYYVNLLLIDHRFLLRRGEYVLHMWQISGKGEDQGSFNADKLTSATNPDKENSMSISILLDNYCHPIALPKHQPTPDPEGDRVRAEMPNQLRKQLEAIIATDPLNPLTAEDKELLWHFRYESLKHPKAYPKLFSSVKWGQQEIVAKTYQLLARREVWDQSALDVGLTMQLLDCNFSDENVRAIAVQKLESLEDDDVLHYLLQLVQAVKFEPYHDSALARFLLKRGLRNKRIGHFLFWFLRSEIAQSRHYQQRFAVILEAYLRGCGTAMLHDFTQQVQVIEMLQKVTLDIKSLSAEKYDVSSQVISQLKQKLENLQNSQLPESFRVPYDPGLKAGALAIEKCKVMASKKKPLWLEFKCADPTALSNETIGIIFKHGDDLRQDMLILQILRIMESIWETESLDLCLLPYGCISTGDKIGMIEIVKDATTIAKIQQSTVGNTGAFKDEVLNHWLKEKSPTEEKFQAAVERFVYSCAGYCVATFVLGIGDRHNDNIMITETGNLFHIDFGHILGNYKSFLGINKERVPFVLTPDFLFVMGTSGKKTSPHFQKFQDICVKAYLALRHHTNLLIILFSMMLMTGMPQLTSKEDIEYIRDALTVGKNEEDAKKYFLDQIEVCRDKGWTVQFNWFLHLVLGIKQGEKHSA
T1 sequence (P42336 whole entry): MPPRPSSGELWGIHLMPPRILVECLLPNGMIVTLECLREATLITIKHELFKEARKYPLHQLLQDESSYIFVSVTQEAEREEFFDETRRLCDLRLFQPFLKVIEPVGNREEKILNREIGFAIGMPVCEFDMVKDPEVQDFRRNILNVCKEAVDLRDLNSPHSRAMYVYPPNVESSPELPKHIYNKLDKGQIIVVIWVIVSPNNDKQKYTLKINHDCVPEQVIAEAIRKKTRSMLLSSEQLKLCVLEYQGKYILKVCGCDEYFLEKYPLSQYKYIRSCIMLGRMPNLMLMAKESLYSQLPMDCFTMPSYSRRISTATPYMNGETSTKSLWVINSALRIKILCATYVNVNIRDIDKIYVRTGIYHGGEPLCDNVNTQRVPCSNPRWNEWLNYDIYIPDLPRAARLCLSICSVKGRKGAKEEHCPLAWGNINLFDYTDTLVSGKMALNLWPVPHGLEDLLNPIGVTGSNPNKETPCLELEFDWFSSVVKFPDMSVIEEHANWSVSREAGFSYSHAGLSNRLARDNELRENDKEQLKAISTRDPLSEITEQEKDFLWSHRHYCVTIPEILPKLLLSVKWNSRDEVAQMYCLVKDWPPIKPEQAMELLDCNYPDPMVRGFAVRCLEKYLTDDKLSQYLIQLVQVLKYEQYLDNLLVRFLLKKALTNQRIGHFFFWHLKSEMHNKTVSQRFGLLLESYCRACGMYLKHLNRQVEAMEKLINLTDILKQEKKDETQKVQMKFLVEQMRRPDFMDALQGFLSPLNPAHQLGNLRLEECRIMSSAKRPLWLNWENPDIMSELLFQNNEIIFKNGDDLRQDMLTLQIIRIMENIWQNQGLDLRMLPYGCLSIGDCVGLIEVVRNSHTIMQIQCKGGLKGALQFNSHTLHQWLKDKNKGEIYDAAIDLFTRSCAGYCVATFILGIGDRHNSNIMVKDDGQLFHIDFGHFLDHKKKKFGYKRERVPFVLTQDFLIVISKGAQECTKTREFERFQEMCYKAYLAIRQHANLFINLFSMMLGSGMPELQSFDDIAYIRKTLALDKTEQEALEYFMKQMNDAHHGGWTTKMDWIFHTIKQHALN
T1 sequence (P27986 whole entry partner): as the sequence (P27986 whole entry partner) above

Take `O=C1N[C@@H](CO)[C@H](c2ccc(Cl)c(Cl)c2)c2cc(N3CCOCC3)sc21` (relative stereo) [Compound 192, rel-(4R,5R)-4-(3,4-dichlorophenyl)-5-(hydroxymethyl)-2-(morpholin-4-yl)-5,6-dihydrothieno[2,3-c]pyridin-7(4H)-one]: the inhibition at 1.11 µM on PI3Kalpha was found to be 39.6%; on PI3Kbeta, 106%; on PI3Kgamma, 52.9%; on PI3Kdelta, 105%.
On to `O=C1CC(c2ccc3ccccc3c2)c2cc(N3CCOCC3)sc21` (centres unmarked) [Compound 119], for which the inhibition at 1.11 µM amounted to 42.4% at PI3Kalpha, 107% on PI3Kbeta, 60.3% on PI3Kgamma and 99.8% on PI3Kdelta.
In the same order, the values of `O=C1NCCC(c2ccc3ccccc3c2)c2cc(N3CCOCC3)sc21` (centres unmarked) [Compound 175] are 66.9%, 112%, 43.8% and 112%.
In the same order, the values of `O=C1NCC(c2ccc(Cl)cc2)c2nc(N3CCOCC3)sc21` (centres unmarked) [Compound 124] are 12.2%, 93.5%, 9.41% and 59.2%.
Consider `O=C1NCC(c2ccc(Cl)cc2)c2c1sc(N1CCOCC1)c2Br` (single isomer, unassigned) [Compound 181, 3-bromo-4-(4-chlorophenyl)-2-(morpholin-4-yl)-5,6-dihydrothieno[2,3-c]pyridin-7(4H)-one], for which the inhibition at 1.11 µM on PI3Kalpha amounted to 8.59%; at PI3Kbeta, 69.5%.
`CNC(=O)[C@@H]1NC(=O)c2sc(C3=CCOCC3)cc2[C@H]1c1ccc(Cl)cc1` [Compound 207]: on PI3Kalpha, the inhibition at 1.11 µM was found to be 42.9%. Moreover, the PI3Kbeta % inh on PI3Kbeta is 62.94%.
For the compound `NC(=O)CN1CC(c2ccc(Cl)cc2)c2cc(N3CCOCC3)sc2C1=O` (centres unmarked) [Compound 214, 2-(4-(4-chlorophenyl)-2-morpholino-7-oxo-4,5-dihydrothieno[2,3-c]pyridin-6(7H)-yl)acetamide], the inhibition at 1.11 µM on PI3Kalpha is 5.13%; at PI3Kbeta, 110%.
Take `N#Cc1c(N2CCOCC2)sc2c1C(c1ccc3ccccc3c1)CNC2=O` (centres unmarked) [Compound 135, 2-(morpholin-4-yl)-4-(2-naphthyl)-7-oxo-4,5,6,7-tetrahydrothieno[2,3-c]pyridine-3-carbonitrile]: the results for the inhibition at 1.11 µM on PI3Kalpha and at PI3Kbeta were 89.8% and 121%, respectively.
On the same counts, the results for `N#Cc1c(N2CCOCC2)sc2c1C(c1ccc(Cl)c(Cl)c1)NC2=O` (centres unmarked) [Compound 187] are 38.4% and 104%.
On the same counts, the results for `O=Cc1c(N2CCOCC2)sc2c1C(c1ccc(Cl)cc1)CNC2=O` (single isomer, unassigned) [Compound 193, 4-(4-chlorophenyl)-2-(morpholin-4-yl)-7-oxo-4,5,6,7-tetrahydrothieno[2,3-c]pyridine-3-carbaldehyde] are 11.1% and 79.1%.
On the same counts, the results for `CNC(=O)[C@@H]1NC(=O)c2sc(-c3ccnc(C)c3)cc2[C@H]1c1ccc(Cl)cc1` (relative stereo) [Compound 138, rel-(4R,5R)-4-(4-chlorophenyl)-N-methyl-2-(2-methylpyridin-4-yl)-7-oxo-4,5,6,7-tetrahydrothieno[2,3-c]pyridine-5-carboxamide] are 7.29% and 64.6%.
Regarding `CN(C)CC#Cc1c(N2CCOCC2)sc2c1C(c1ccc(Cl)cc1)CNC2=O` (centres unmarked) [Compound 130], the inhibition at 1.11 µM on PI3Kalpha turned out to be 58.1%; on PI3Kbeta, 116%.
On the same counts, the results for `O=C1N[C@@H](C(=O)O)[C@H](c2ccc(Cl)c(Cl)c2)c2cc(N3CCOCC3)sc21` (relative stereo) [Compound 142, rel-(4R,5R)-4-(3,4-dichlorophenyl)-2-(morpholin-4-yl)-7-oxo-4,5,6,7-tetrahydrothieno[2,3-c]pyridine-5-carboxylic acid] are 16.7% and 72%.
As to `O=C1N[C@@H](CO)CC(c2ccc3ccccc3c2)c2nc(N3CCOCC3)sc21` (some centres unmarked) [Compound 120], at PI3Kalpha, the PI3Kalpha % inh turned out to be 12.90%. The PI3Kbeta % inh at PI3Kbeta was 44.05%.
For the compound `CNC(=O)[C@H]1NC(=O)c2sc(N3CCOCC3)cc2[C@H]1c1ccc(Cl)cc1` [Compound 157], the inhibition at 1.11 µM at PI3Kalpha was 30.1%; at PI3Kbeta, 111%.
On the same counts, the results for `NC(=O)c1cc(C2CCNC(=O)c3sc(N4CCOCC4)nc32)ccc1Cl` (centres unmarked) [Compound 167] are 5.27% and 81.2%.
As to `O=C1OC2(CCC(=O)c3sc(-c4ccncc4)cc32)c2ccc(Cl)cc21` (centres unmarked) [Compound 14, 5-chloro-2′-pyridin-4-yl-5′,6′-dihydro-3H,7′H-spiro[2-benzofuran-1,4′-[1]benzothiophene]-3,7′-dione], the inhibition at 1.11 µM at PI3Kalpha turned out to be 8.7%; on PI3Kbeta, 31.9%. Further, the IC50 on PI3Kbeta (read-out: IC50 (inhibit PI3Kbeta)) was over 1000 nM.
Compound `Cc1cc(C2CNC(=O)c3sc(N4CCOCC4)cc32)ccc1Cl` (centres unmarked) [Compound 205] yielded a PI3Kalpha % inh on PI3Kalpha of 28.04%. The same compound registered a PI3Kbeta % inh at PI3Kbeta of 96.83%.
For `C=Cc1c(N2CCOCC2)sc2c1C(c1ccc(Cl)cc1)CNC2=O` (single isomer, unassigned) [Compound 143, 4-(4-chlorophenyl)-2-(morpholin-4-yl)-3-vinyl-5,6-dihydrothieno[2,3-c]pyridin-7(4H)-one], the inhibition at 1.11 µM on PI3Kalpha came out at 10%; at PI3Kbeta, 82.5%.
For the compound `C=CCN1C(=O)c2sc(N3CCOCC3)cc2C(c2ccc(Cl)c(Cl)c2)C1C(=O)OC` (centres unmarked) [Compound 166, methyl 6-allyl-4-(3,4-dichlorophenyl)-2-(morpholin-4-yl)-7-oxo-4,5,6,7-tetrahydrothieno[2,3-c]pyridine-5-carboxylate], the results for the inhibition at 1.11 µM on PI3Kalpha and on PI3Kbeta were 7.59% and 69.2%, respectively.
In the same order, the values of `O=C1OC2(CCNC(=O)c3sc(N4CCOCC4)nc32)c2ccc(Cl)cc21` (centres unmarked) [Compound 172, 5-chloro-2′-(morpholin-4-yl)-6′,7′-dihydro-3H-spiro[2-benzofuran-1,8′-[1,3]thiazolo[5,4-c]azepine]-3,4′(5′H)-dione] are 16.1% and 49.3%.
In the same order, the values of `C=CCC1(C(=O)OC)NC(=O)c2sc(N3CCOCC3)cc2C1c1ccc(Cl)c(Cl)c1` (centres unmarked) [Compound 154, methyl 5-allyl-4-(3,4-dichlorophenyl)-2-(morpholin-4-yl)-7-oxo-4,5,6,7-tetrahydrothieno[2,3-c]pyridine-5-carboxylate] are 10.9% and 75.5%.
On the same counts, the results for `COC(=O)c1[nH]c(=O)c2sc(N3CCOCC3)cc2c1-c1ccc(Cl)c(Cl)c1` [Compound 184, methyl 4-(3,4-dichlorophenyl)-2-(morpholin-4-yl)-7-oxo-6,7-dihydrothieno[2,3-c]pyridine-5-carboxylate] are 6.62% and 77.5%.
For `O=C1NCCC(c2ccc3ccccc3c2)c2nc(N3CCOCC3)sc21` (centres unmarked) [Compound 131], on PI3Kalpha, the PI3Kalpha % inh is 9.87%. Further, the PI3Kbeta % inh on PI3Kbeta stood at 85.03%.
With `O=C1NCC=C(c2ccc3ccncc3c2)c2nc(N3CCOCC3)sc21` [Compound 195], the values for the inhibition at 1.11 µM on PI3Kalpha and on PI3Kbeta were 16.5% and 62.5%, respectively.
